One block for each molecule: values may come before it. Active and inactive are the calls of the source.
Experiments:
[1] = target: Induced myeloid leukemia cell differentiation protein Mcl-1 (Homo sapiens, UniProt Q07820); experiment: MCL1-BIM BH3 interaction inhibitors, dose response, biochemical, fluorescence polarization, BIM-BH3 peptide, 1536-well (AID 2217)
Bcl-2-like protein 1 = Bcl-2-like protein 1 (Homo sapiens, UniProt Q07817); experiment: BCL-XL inhibitors, dose response, selectivity assay for MCL1 inhibitor project, biochemical, fluorescence polarization, 1536-well (AID 2218)
[2] = HepG2 cell cytotoxicity, dose response, cytotoxicity control, plate reader, cherry-pick, antagonist series (AID 743416); type: functional, cell-based
BJ [3] = experiment: cytotoxicity toward BJ-TERT-LT-ST fibroblasts, dose response, cell-based, RAS-independent, luminescence (AID 1935); type: functional; details: Homo sapiens;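 further: BJ fibroblasts immortalized with TERT plus LT and ST oncogenes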
[4] = Luminescence Cell-Based Dose Confirmation HTS to Identify Inhibitors of Platelet Dense Granule Release. [Related pubchem assays: 1663 (Primary HTS), 1678 (Summary of Project)]; type: functional
[5] = target: Luciferin 4-monooxygenase (Photinus pyralis, UniProt P08659); experiment: firefly luciferase enzyme inhibitors, dose response, biochemical, luminescence (AID 1891)
[6] = inhibitors of firefly luciferase expression or activity, dose response, H4 neuroglioma cells, luminescence (AID 1990); type: functional, cell-based
[7] = cytotoxicity toward DRD oncogenic fibroblasts, dose response, cell-based, non-viral oncogenic, luminescence (AID 1934); type: functional; details: Homo sapiens
[8] = LGR2 antagonists, dose response, cell-based, HEK293, CRE-luciferase reporter, cherry pick, set 2 (AID 743343); type: functional;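 further: transfected cells were stimulated with diluted bursicon conditioned medium after compound addition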
BJ [9] = experiment: cytotoxicity toward BJ-TERT fibroblasts, dose response, cell-based, RAS-independent, luminescence (AID 1933); type: functional; details: Homo sapiens
[10] = Luminescence-based counterscreen assay for KLF5 inhibitors: dose response cell-based high throughput screening assay to identify cytotoxic compounds using the IEC-6 intestinal epithelial cell line. [Related pubchem assays: 1700 (Primary screen.), 1834 (Confirmation screen.), 1858 (Summary AID.), 1905 (Counterscreen.)]; type: functional
[11] = HEK293 cell cytotoxicity, dose response, cytotoxicity control, plate reader, cherry-picked samples (AID 743446); type: functional, cell-based
BJ [12] = experiment: cells; type: functional, cell-based; details: Homo sapiens
[13] = MC4R antagonists, dose response, counter-screen for LGR2 antagonist project, cell-based, plate reader, cherry pick (AID 743444); type: functional;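 further: transfected HEK 293 cells stimulated with alpha-MSH peptide; potency of inhibitors of the alpha-MSH evoked signal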
[14] = A549 cell cytotoxicity, dose response, cytotoxicity control, plate reader, cherry-pick, antagonist series (AID 743412); type: functional, cell-based
[15] = inhibitors of SNCA 5'UTR-driven reporter translation, confirmation, H4 neuroglioma cells, luminescence (AID 1988); type: functional, cell-based
[16] = target: Peroxisome proliferator-activated receptor gamma/Nuclear receptor coactivator 3 (Homo sapiens, UniProt P37231); type: functional;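 further: agonist potency for raising coactivator recruitment to the receptor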
[17] = target: Peroxisome proliferator-activated receptor gamma/Nuclear receptor coactivator 1 (Homo sapiens, UniProt P37231); type: functional;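 further: agonist potency as compounds enhance coactivator SRC-1 recruitment to PPARgamma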
[18] = target: FAD-linked sulfhydryl oxidase ALR (Homo sapiens, UniProt P55789); experiment: inhibitors of human ALR sulfhydryl oxidase, dose response, biochemical, H2O2 detection, luminescence, cherry-pick (AID 493248)
[19] = target: Peroxisome proliferator-activated receptor gamma/Nuclear receptor coactivator 2 (Homo sapiens, UniProt P37231); type: functional;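 further: agonist potency for raising coactivator recruitment to the receptor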
[20] = target: Heat shock protein HSP 90-alpha (Homo sapiens, UniProt P07900); type: functional, organism-based
Aspartyl aminopeptidase = target: T1, Aspartyl aminopeptidase (Plasmodium falciparum 3D7, UniProt Q8I2J3); experiment: Counterscreen for inhibitors of M1 and M17 aminopeptidases: QFRET-based biochemical high throughput dose response assay for inhibitors of the Plasmodium falciparum M18 Aspartyl Aminopeptidase (PFM18AAP). [Related PubChem assays: 1619 (Screening assay (M17LAP inhibitors).), 1445 (Screening assay (M1AAP inhibitors).)]
T1 sequence (Q8I2J3 whole entry): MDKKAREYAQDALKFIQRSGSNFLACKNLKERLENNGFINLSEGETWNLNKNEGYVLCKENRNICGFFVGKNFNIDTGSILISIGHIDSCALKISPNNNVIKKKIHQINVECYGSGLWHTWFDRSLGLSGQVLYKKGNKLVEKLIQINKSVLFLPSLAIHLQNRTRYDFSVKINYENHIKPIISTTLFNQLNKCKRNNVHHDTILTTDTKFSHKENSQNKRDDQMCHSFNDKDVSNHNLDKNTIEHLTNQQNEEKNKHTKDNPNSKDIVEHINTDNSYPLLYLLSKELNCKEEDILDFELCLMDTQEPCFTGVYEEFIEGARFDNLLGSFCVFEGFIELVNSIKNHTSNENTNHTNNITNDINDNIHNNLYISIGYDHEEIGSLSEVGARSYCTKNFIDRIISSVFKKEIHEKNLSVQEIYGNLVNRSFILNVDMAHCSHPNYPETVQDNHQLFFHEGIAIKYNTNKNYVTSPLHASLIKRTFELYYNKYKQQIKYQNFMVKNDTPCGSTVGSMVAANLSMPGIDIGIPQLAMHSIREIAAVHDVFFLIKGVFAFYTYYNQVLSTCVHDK

Procathepsin L = Procathepsin L (Homo sapiens, UniProt P07711); experiment: cathepsin L inhibitors, dose response, counter-screen for M1/M17 aminopeptidase inhibitor project, biochemical, QFRET, 1536-well (AID 2214)
Leucine aminopeptidase = target: T2, Leucine aminopeptidase (Plasmodium falciparum 3D7, UniProt Q8IL11); experiment: P. falciparum M17LAP inhibitors, primary screen, biochemical, fluorogenic H-Leu-NHMec substrate, 1536-well (AID 1619); type: functional
T2 sequence (Q8IL11 whole entry): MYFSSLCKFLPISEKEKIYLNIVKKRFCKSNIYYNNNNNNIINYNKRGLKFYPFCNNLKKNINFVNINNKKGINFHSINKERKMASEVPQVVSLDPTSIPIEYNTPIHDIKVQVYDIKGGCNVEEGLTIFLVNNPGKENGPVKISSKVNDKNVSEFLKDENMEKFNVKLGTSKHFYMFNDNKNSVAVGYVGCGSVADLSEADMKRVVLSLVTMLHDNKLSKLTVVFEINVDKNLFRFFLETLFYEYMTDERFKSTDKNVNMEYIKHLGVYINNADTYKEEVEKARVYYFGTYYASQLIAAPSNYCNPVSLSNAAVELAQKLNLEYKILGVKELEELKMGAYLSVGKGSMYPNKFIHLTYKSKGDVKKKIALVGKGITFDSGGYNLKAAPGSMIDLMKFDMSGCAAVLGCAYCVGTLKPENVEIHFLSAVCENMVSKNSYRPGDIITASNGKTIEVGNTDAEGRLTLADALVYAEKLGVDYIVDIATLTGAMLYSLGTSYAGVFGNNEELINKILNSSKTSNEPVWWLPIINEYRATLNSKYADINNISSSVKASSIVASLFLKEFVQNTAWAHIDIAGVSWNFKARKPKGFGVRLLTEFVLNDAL

Peroxisome proliferator-activated receptor gamma/Nuclear receptor coactivator 2, sequence (P37231 whole entry): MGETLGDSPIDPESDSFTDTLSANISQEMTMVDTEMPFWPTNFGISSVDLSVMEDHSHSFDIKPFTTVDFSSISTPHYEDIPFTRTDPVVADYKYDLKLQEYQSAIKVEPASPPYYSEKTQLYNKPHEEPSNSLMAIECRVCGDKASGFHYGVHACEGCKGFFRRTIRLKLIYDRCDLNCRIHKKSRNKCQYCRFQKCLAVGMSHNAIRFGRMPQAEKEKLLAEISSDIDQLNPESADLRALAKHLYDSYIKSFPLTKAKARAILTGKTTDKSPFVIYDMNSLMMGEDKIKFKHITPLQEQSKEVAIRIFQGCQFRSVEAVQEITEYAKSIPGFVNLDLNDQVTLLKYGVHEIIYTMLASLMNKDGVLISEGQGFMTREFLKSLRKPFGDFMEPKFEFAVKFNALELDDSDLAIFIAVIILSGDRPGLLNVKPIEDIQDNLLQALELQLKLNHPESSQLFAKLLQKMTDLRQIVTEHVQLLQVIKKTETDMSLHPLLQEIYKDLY
Peroxisome proliferator-activated receptor gamma/Nuclear receptor coactivator 2, sequence (Q15596 whole entry, further chain): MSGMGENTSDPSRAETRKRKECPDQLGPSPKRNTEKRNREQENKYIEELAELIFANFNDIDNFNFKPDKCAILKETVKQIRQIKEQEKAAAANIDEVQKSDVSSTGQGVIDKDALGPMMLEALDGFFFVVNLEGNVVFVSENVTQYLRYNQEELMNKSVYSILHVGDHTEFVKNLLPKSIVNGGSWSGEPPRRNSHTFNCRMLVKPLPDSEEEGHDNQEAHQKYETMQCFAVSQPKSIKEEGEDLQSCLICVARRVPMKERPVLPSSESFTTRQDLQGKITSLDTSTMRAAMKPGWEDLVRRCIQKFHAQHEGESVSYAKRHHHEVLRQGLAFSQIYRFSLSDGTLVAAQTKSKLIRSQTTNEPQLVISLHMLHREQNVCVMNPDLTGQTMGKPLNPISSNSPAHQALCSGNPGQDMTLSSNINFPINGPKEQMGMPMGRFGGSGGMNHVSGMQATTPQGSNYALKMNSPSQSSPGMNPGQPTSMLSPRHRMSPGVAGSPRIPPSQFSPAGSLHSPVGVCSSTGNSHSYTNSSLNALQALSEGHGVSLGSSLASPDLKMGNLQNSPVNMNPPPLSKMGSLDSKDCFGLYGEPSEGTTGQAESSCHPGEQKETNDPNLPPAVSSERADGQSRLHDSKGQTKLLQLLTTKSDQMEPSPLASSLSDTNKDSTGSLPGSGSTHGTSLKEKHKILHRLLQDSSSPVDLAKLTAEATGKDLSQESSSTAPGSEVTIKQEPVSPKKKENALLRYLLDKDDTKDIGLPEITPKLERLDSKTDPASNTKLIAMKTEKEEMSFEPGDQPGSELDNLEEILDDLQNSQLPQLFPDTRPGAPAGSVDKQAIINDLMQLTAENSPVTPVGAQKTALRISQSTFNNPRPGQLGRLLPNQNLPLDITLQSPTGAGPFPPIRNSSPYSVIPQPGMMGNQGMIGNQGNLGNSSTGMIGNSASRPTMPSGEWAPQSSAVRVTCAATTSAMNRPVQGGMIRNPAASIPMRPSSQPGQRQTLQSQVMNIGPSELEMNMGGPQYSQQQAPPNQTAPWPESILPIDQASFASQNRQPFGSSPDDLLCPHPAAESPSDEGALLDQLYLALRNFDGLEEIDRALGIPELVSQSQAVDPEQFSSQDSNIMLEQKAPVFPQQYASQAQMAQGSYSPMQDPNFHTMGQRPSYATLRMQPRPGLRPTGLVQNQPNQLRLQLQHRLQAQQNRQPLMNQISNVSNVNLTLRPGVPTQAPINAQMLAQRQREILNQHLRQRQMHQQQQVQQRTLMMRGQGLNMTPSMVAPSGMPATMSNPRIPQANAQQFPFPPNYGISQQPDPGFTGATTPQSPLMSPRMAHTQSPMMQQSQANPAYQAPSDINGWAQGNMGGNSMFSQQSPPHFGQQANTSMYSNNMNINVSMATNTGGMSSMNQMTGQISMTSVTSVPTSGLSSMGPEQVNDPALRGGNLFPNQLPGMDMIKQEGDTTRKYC
Peroxisome proliferator-activated receptor gamma/Nuclear receptor coactivator 1, sequence (P37231 whole entry): as the sequence (P37231 whole entry) above
Peroxisome proliferator-activated receptor gamma/Nuclear receptor coactivator 1, sequence (Q15788 whole entry, further chain): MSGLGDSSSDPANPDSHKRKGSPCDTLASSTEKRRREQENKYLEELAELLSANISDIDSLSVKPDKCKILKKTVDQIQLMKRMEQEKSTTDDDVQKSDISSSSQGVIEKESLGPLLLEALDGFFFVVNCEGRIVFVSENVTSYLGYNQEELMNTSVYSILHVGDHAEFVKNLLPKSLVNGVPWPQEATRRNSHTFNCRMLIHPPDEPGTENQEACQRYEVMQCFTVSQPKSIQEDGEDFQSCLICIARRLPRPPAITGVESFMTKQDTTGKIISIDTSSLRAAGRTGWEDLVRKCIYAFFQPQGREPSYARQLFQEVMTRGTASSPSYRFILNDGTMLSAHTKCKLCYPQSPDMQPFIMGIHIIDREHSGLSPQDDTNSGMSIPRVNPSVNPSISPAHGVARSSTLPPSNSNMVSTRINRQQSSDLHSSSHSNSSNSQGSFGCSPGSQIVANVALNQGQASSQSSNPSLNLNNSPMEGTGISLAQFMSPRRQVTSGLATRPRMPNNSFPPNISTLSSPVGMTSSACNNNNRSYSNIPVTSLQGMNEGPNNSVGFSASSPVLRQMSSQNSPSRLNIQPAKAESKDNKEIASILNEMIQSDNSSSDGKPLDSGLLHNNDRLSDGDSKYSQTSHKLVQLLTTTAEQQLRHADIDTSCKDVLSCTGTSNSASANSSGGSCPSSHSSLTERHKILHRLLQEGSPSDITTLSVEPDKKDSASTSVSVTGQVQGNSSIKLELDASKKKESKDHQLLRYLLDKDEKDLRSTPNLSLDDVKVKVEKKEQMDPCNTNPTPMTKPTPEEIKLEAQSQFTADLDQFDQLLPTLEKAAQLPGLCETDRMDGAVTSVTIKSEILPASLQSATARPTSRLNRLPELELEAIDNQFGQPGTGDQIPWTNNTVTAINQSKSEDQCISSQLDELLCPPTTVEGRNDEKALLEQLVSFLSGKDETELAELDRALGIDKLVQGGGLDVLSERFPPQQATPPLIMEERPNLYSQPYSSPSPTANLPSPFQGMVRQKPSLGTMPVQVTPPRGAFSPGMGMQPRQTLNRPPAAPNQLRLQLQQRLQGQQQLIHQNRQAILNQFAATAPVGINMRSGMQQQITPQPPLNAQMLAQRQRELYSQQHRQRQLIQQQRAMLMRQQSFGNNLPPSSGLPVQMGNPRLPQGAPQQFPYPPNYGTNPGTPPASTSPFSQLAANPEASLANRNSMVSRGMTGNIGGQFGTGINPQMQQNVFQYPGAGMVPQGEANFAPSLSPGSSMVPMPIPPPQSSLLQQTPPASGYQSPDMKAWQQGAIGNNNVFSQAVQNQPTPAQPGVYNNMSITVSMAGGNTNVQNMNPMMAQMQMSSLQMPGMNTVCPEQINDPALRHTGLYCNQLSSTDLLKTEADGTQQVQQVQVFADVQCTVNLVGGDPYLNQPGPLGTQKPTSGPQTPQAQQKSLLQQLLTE
Procathepsin L, sequence (P07711 whole entry): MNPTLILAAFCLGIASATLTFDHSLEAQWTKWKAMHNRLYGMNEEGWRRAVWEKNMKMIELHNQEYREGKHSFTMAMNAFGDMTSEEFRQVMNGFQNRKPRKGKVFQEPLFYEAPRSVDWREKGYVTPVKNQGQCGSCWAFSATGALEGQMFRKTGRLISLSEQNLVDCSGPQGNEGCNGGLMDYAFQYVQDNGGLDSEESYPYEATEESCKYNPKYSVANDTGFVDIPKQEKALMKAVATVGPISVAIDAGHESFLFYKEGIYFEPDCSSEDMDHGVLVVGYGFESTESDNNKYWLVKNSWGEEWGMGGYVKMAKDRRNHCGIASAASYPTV
Luciferin 4-monooxygenase, sequence (P08659 whole entry): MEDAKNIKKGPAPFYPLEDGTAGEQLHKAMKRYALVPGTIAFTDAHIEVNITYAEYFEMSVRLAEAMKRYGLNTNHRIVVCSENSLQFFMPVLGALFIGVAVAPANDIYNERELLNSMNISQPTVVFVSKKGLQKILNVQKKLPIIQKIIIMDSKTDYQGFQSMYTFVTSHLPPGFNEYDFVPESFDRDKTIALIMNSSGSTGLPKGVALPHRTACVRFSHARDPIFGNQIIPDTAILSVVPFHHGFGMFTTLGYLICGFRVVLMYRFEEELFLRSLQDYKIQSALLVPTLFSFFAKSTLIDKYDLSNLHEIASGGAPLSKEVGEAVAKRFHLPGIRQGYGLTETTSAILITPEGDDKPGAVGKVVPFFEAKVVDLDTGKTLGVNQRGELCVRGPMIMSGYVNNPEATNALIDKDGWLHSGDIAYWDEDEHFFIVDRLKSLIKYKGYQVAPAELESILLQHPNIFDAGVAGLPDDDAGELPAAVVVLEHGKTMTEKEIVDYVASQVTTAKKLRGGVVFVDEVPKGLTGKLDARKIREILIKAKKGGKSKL
FAD-linked sulfhydryl oxidase ALR, sequence (P55789 whole entry): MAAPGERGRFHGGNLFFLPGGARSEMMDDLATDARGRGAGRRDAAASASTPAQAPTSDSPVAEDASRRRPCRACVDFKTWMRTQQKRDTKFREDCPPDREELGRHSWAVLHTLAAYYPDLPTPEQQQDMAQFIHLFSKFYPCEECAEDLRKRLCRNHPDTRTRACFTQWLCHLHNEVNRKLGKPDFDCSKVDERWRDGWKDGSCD

IC50 [1]: 14.1 µM (not active) | IC50 (Bcl-2-like protein 1): 27.6 µM (not active)
Compound: Cc1cc[n+](-c2[n-]c(=O)sc2/C=N/NC(=O)CCn2c3ccccc3c3ccccc32)cc1

Compound: CN(C)c1ccc(Nc2nc(N)c3ccccc3n2)cc1
AC50 [2]: 22.6 µM (active) | EC50 (BJ [3]): > 150 µM (inconclusive) | EC50 [4]: 0.234 µM (active) | EC50 [5]: 1.37 µM (active) | EC50 [6]: > 60 µM (inconclusive) | EC50 [7]: 11.8 µM (active) | AC50 [8]: 1.57 µM (active) | EC50 (BJ [9]): 10.6 µM (active) | IC50 [10]: 19.1 µM (not active) | AC50 [11]: 24.5 µM (active) | EC50 (BJ [12]): 12.6 µM (active) | AC50 [13]: 1.89 µM (active) | AC50 [14]: 23.7 µM (active) | EC50 [15]: 10.1 µM (inconclusive)

EC50 [16]: > 79.4 µM (not active) | EC50 [17]: > 79.4 µM (not active) | AC50 [18]: 0.622 µM (active) | EC50 [19]: > 79.4 µM (not active)
Compound: CCc1nc(SCc2ccc(F)cc2)[nH]c(=O)c1C#N

EC50 [16]: > 79.4 µM (not active) | AC50 [20]: 3.85 µM (active) | EC50 [17]: > 79.4 µM (not active) | EC50 [19]: > 79.4 µM (not active)
Compound: C/C(=N\Nc1nc2ccccc2s1)c1ccc(Br)s1

IC50 (Aspartyl aminopeptidase): > 73.5 µM (not active) | IC50 (Procathepsin L): > 59.6 µM (not active) | IC50 (Leucine aminopeptidase): < 1 µM (active)
Compound: CCC1CCc2c(sc(NC(=O)C3CC=CCC3C(=O)O)c2C#N)C1 (stereo not given)

IC50 (Aspartyl aminopeptidase): > 73.5 µM (not active) | IC50 (Procathepsin L): > 59.6 µM (not active) | IC50 (Leucine aminopeptidase): 1.94 µM (active)
Compound: Cc1ccc(Nc2nnc(SC3CCOC3=O)s2)cc1 (stereo not given)

From ChEMBL document CHEMBL1201862, “PubChem BioAssay data set” (2004)
